Measured values from publication PMC7438494 (Communications Biology, 2020).
Several values for one entry are separate records, joined by “and”; a condition that tells them apart may be missing. Equal entries are not always repeated. Where two headings read alike, the source gives them in different places.

Legend:
[1] = biological target: yeast mitochondrial ATP synthase (Saccharomyces cerevisiae, UniProt P00854+P61829); assay: biochemical
[2] = test system: MCF7 breast cancer cells; conditions: read-out: IC50, mitochondrial oxygen consumption / cell growth; cited from earlier work
[3] = test system: yeast mitochondria; assay: Membrane potential of yeast mitochondria, fluorescence quenching of Rhodamine 123; assay type: biochemical, Saccharomyces cerevisiae; conditions: high concentrations
Procedure: (§1) The membrane potential was assessed by measuring fluorescence quenching of Rhodamine 123 at 488 nm excitation and 525 nm emission in a buffer containing 0.65 M mannitol, 20 mM bis-tris-propane, 2 mM tris-phosphate, 0.3 mM EGTA, pH 6.8 with Rhodamine 123 dissolved in methanol (1.0 µM). Yeast mitochondria were energized with ethanol (0.4% v/v), whereas human mitochondria were energized with glutamate/malate (5 mM/2.5 mM).

[4] = biological target: yeast mitochondrial ATP synthase (yeast SMP) (Saccharomyces cerevisiae, UniProt P00854+P61829); assay: biochemical; conditions: for ATP hydrolysis activity, Exp 1-3: SMP data
[5] = test system: human mitoplasts; assay: Membrane potential of human mitoplasts, fluorescence quenching of Rhodamine 123; assay type: biochemical; conditions: high concentrations
Procedure: as §1

[6] = patients treated with Sirturo; placebo 2.5%; cited from earlier work
[7] = biological target: T1, yeast F1Fo ATP synthase (Saccharomyces cerevisiae, UniProt P00854+P61829); assay: Single-particle cryo-EM of yeast F1Fo in nanodiscs with BDQ; assay type: binding
[8] = biological target: T1, yeast F1Fo ATP synthase; assay: biochemical
[9] = biological target: luciferase (Photinus pyralis, UniProt P08659); assay type: biochemical
[10] = test system: human mitochondrial ATP synthase; conditions: reviewer's remark; ref previous reports; read-out: IC50, ATPase activity of human mitochondrial ATP synthase; cited from earlier work
[11] = test system: hERG channel; conditions: read-out: IC50 for hERG; cited from earlier work
[12] = 3rd exp (2-1-19), Bedaquiline 0.5 μM, frozen yeast mito, 60 min
[13] = 3rd exp (2-1-19), Bedaquiline 1 μM, frozen yeast mito, 60 min
[14] = 3rd exp (2-1-19), Bedaquiline 1.4 μM, frozen yeast mito, 60 min
[15] = 3rd exp (2-1-19), Bedaquiline 2 μM, frozen yeast mito, 60 min
[16] = 3rd exp (2-1-19), Bedaquiline 4 μM, frozen yeast mito, 60 min
[17] = 3rd exp (2-1-19), Bedaquiline 6 μM, frozen yeast mito, 60 min
[18] = right-hand regression, fits the SMP data

Sequence of luciferase (P08659 whole entry): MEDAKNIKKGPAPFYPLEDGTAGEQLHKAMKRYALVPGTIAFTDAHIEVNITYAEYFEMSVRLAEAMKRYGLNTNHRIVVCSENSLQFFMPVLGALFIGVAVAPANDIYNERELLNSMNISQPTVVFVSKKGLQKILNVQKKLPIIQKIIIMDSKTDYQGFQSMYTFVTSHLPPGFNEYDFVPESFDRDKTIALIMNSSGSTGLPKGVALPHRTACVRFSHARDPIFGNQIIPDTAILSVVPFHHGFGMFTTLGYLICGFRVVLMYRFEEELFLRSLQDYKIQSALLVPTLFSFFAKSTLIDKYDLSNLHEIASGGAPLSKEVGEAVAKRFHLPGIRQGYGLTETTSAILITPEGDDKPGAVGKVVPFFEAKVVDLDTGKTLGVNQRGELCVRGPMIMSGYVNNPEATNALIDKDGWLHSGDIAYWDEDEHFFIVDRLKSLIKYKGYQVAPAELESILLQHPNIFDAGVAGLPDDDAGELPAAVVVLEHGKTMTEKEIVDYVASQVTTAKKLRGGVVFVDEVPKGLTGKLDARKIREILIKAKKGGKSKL

Compound: COc1nc2ccc(Br)cc2cc1[C@@H](c1ccccc1)[C@@](O)(CCN(C)C)c1cccc2ccccc12 [BDQ, Bedaquiline]
- Cyanide sensitive ATP synthesis [1, 12]: 38.5022 nmol/min/mg
- activity at 0.5 µM [1, 12]: 69.8%
- inhibition at 0.5 µM [1, 12]: 30.2%
- Cyanide sensitive ATP synthesis [1, 13]: 33.4087 nmol/min/mg
- activity at 1 µM [1, 13]: 60.6%
- inhibition at 1 µM ([1]; 3rd exp (2-1-19), Bedaquiline 1 μM, frozen yeast mito, 60 min, read-out: % inhibition): 39.4%
- Cyanide sensitive ATP synthesis [1, 14]: 18.8899 nmol/min/mg
- activity at 1.4 µM [1, 14]: 34.2%
- inhibition at 1.4 µM [1, 14]: 65.8%
- Cyanide sensitive ATP synthesis [1, 15]: 16.8178 nmol/min/mg
- activity at 2 µM [1, 15]: 30.5%
- inhibition at 2 µM [1, 15]: 69.5%
- Cyanide sensitive ATP synthesis [1, 16]: 2.063 nmol/min/mg
- activity at 4 µM [1, 16]: 3.74%
- inhibition at 4 µM [1, 16]: 96.3%
- activity at 6 µM [1, 17]: 1.81%
- inhibition at 6 µM [1, 17]: 98.2%
- IC50 ([1]; IC50 ± SEM, ATP synthesis, yeast mitochondria): 1100 nM and ~1100 nM
- IC50 [2]: ~1000 nM
- effect on membrane potential, yeast mitochondria [3]: partial effect
- EC50 [4]: 1280 nM
- IC50 ([4]; IC50 ± SEM, ATP hydrolysis, yeast SMP): 1280 ± 250 nM
- ATP hydrolysis activity, Exp 1-3 ([4]; BDQ 0.0372 uM): 0.9086 and 0.8616 and 0.8497
- ATP hydrolysis activity, Exp 1-3 ([4]; BDQ 0.0744 uM): 0.9524 and 0.7514 and 0.8742
- ATP hydrolysis activity, Exp 1-3 ([4]; BDQ 0.3722 uM): 0.7241 and 0.758 and 0.7412
- ATP hydrolysis activity, Exp 1-3 ([4]; BDQ 0.7445 uM): 0.71 and 0.6674 and 0.5944
- ATP hydrolysis activity, Exp 1-3 ([4]; BDQ 1.489 uM): 0.489 and 0.4879 and 0.5368
- ATP hydrolysis activity, Exp 1-3 ([4]; BDQ 3.7225 uM): 0.2859 and 0.2741 and 0.3273
- ATP hydrolysis activity, Exp 1-3 ([4]; BDQ 7.4449 uM): 0.2679 and 0.4735 and 0.3345
- ATP hydrolysis activity, Exp 1-3 ([4]; BDQ 18.6123 uM): 0.1786 and 0.215 and 0.285
- ATP hydrolysis activity, Exp 1-3 ([4]; BDQ 37.2245 uM): 0.1804 and 0.145 and 0.1981
- Hillslope, four parameter logistic fit, second regression [4, 18]: -1.0668
- max, four parameter logistic fit, second regression [4, 18]: 0.8923
- min, four parameter logistic fit, second regression [4, 18]: 0.1853
- effect on membrane potential, human mitoplasts [5]: partial effect
- risk of death [6]: 11.4%
- binding to F1 by cryo-EM density ([7]; F1Fo map 3.9 Å): not bound to F1
- binding site by cryo-EM density ([7]; Fo map 4.2 Å): at the interface between the a- and c-subunits
- Hillslope, four parameter logistic fit ([8]; BDQ, F1Fo in bicelles): -1.0426
- max, four parameter logistic fit ([8]; BDQ, F1Fo in bicelles, […]): 1.167
- min, four parameter logistic fit ([8]; BDQ, F1Fo in bicelles, […]): 0.2116
- EC50 ([8]; BDQ, F1Fo in bicelles, x in µM BDQ, read-out: EC50, four parameter logistic fit (coefficient) (converted)): 0.0272 µM
- ATP hydrolysis activity (ΔA340nm), Exp 1-3 ([8]; F1Fo in bicelles, BDQ 0.0246 uM): 0.6436 and 0.6522 and 0.6471
- ATP hydrolysis activity (ΔA340nm), Exp 1-3 ([8]; F1Fo in bicelles, BDQ 0.0372 uM): 0.615 and 0.6977 and 0.5128
- ATP hydrolysis activity (ΔA340nm), Exp 1-3 ([8]; F1Fo in bicelles, BDQ 0.0744 uM): 0.5405 and 0.4979 and 0.4346
- ATP hydrolysis activity (ΔA340nm), Exp 1-3 ([8]; F1Fo in bicelles, BDQ 0.25 uM): 0.379 and 0.272 and 0.2957
- ATP hydrolysis activity (ΔA340nm), Exp 1-3 ([8]; F1Fo in bicelles, BDQ 0.37 uM): 0.3688 and 0.2428 and 0.2764
- ATP hydrolysis activity (ΔA340nm), Exp 1-3 ([8]; F1Fo in bicelles, BDQ 0.74 uM): 0.2533 and 0.2466 and 0.2454
- ATP hydrolysis activity (ΔA340nm), Exp 1-3 ([8]; F1Fo in bicelles, BDQ 1.49 uM): 0.2105 and 0.2204 and 0.2061
- ATP hydrolysis activity (ΔA340nm), Exp 1-3 ([8]; F1Fo in bicelles, BDQ 3.72 uM): 0.2216 and 0.2051 and 0.1755
- ATP hydrolysis activity (ΔA340nm), Exp 1-3 ([8]; F1Fo in bicelles, BDQ 7.44 uM): 0.2035 and 0.2344 and 0.1804
- ATP hydrolysis activity (ΔA340nm), Exp 1-3 ([8]; F1Fo in bicelles, BDQ 18.61 uM): 0.2777 and 0.1895 and 0.1989
- ATP hydrolysis activity (ΔA340nm), Exp 1-3 ([8]; F1Fo in bicelles, BDQ 37.22 uM): 0.2178 and 0.2279 and 0.1889
- ATP hydrolysis activity (ΔA340nm), Exp 1-3 ([8]; F1Fo in bicelles, BDQ 52.11 uM): 0.1835 and 0.2422 and 0.1841
- ATP hydrolysis activity (ΔA340nm), Exp 1-3 ([8]; F1Fo in bicelles, BDQ 74.45 uM): 0.1959 and 0.193 and 0.2223
- inhibition of ATP hydrolysis by yeast F1Fo (extent) ([8]; F1Fo in bicelles, maximal): ~85%
- IC50 ([8]; F1Fo in bicelles, n = 3, read-out: IC50 ± SEM, ATP hydrolysis, purified yeast F1Fo): 27 ± 2.5 nM
- IC50 ([8]; F1Fo in bicelles, read-out: IC50, ATP hydrolysis, purified yeast F1Fo): ~25 nM
- EC50 ([8]; reconstituted in bicelles, n = 3, read-out: EC50, inhibition of the ATPase activity of purified yeast ATP synthase): 0.027 ± 0.0025 µM
- effect on the activity of luciferase [9]: did not affect
- IC50 [10]: 200000 nM
- IC50 [11]: ~1700 nM
